Reference: patent US10717742B2, “Spiro[3H-indole-3,2′-pyrrolidin]-2(1H)-one compounds and derivatives as MDM2-P53 inhibitors” (Boehringer Ingelheim International GmbH, priority 2015, dated 2020)

The compounds below were run against p53-MDM2 interaction (GST-MDM2 protein aa 23-117 / biotinylated p53 wt peptide) (Homo sapiens (Human), UniProt Q00987) (assay: Mdm2-p53 Inhibition AlphaScreen). Conditions: GST-MDM2 (aa 23-117) / biotinylated p53 wt peptide.
Type: binding
Protocol: Mdm2-p53 Inhibition AlphaScreen
15 μL of compound in 20% DMSO (serial pre-dilutions of compound are done in 100% DMSO) is pipetted to the wells of a white OptiPlate-96 (Perkin Elmer). A mix consisting of 20 nM GST-MDM2 protein (aa 23-117) and 20 nM biotinylated p53 wt peptide (encompassing aa 16-27 of wt human p53, amino acid sequence […]-Ttds-Lys-Biotin, molecular weight 2132.56 g/mol) is prepared in assay buffer (50 mM Tris/HCl pH 7.2; 120 mM NaCl; 0.1% bovine serum albumin (BSA); 5 mM dithiothreitol (DTT); 1 mM ethylenediaminetetraacetic acid (EDTA); 0.01% Tween 20). 30 μL of the mix is added to the compound dilutions and incubated for 15 min at rt while gently shaking the plate at 300 rounds per minute (rpm). Subsequently, 15 μL of premixed AlphaLISA Glutathione Acceptor Beads and AlphaScreen Streptavidin Donor Beads from PerkinElmer (in assay buffer at a concentration of 10 μg/mL each) are added and the samples are incubated for 30 min at rt in the dark (shaking 300 rpm). Afterwards, the signal is measured in a PerkinElmer Envision HIS Multilabel Reader using the AlphaScreen protocol from Perkin Elmer.
Each plate contains negative controls where biotinylated p53-peptide and GST-MDM2 are left out and replaced by assay buffer. Negative control values are entered as low basis value when using the software GraphPad Prism for calculations. Furthermore, a positive control (5% DMSO instead of test compound; with protein/peptide mix) is pipetted. Determination of IC50 values are carried out using GraphPad Prism 3.03 software (or updates thereof).

Chain of p53-MDM2 interaction (GST-MDM2 protein aa 23-117 / biotinylated p53 wt peptide) (Q00987 23-117): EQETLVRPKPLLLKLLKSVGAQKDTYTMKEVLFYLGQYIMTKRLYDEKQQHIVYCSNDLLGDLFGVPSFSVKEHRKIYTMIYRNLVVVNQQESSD

Compound	IC50
O=C(O)c1ccc2c(nc3n2C[C@H]2[C@@H]3[C@H](c3cccc(Cl)c3F)[C@]3(C(=O)Nc4cc(Cl)ccc43)N2CC2CC2)c1C(F)(F)F [Ib-193]	3 nM
O=C(O)c1cc2nc3n(c2cc1C(F)(F)F)C[C@H]1[C@@H]3[C@H](c2cccc(Cl)c2F)[C@]2(C(=O)Nc3cc(Cl)ccc32)N1CC1CC1 [Ib-195]	6 nM
O=C(O)c1cc2nc3n(c2cc1OC(F)(F)F)C[C@H]1[C@@H]3[C@H](c2cccc(Cl)c2F)[C@]2(C(=O)Nc3cc(Cl)ccc32)N1CC1CC1 [Ib-197]	2 nM
O=C(O)c1ccc2c(c1)nc1n2C[C@H]2[C@@H]1[C@H](c1cccc(Br)c1F)[C@]1(C(=O)Nc3cc(Cl)ccc31)N2CC1CC1 [Ib-198]	4 nM
O=C(O)c1ccc2c(c1)nc1n2C[C@H]2[C@@H]1[C@H](c1cc(Cl)cs1)[C@]1(C(=O)Nc3cc(Cl)ccc31)N2CC1CC1 [Ib-200]	3 nM
O=C(O)c1ccc2c(c1)nc1n2C[C@H]2[C@@H]1[C@H](c1ccc(Cl)s1)[C@]1(C(=O)Nc3cc(Cl)ccc31)N2CC1CC1 [Ib-202]	7 nM
Cc1c(C(=O)O)ccc2nc3n(c12)CC[C@H]1[C@@H]3[C@H](c2cccc(Cl)c2F)[C@]2(C(=O)Nc3cc(Cl)ccc32)N1CC1CC1 [Ib-204]	2 nM
Cc1cc(C(=O)O)cc2c1nc1n2CC[C@H]2[C@@H]1[C@H](c1cccc(Cl)c1F)[C@]1(C(=O)Nc3cc(Cl)ccc31)N2CC1CC1 [Ib-205]	3 nM
Cc1c(C(=O)O)ccc2nc3n(c12)CC[C@H]1[C@@H]3[C@H](c2cccc(Cl)c2F)[C@]2(C(=O)Nc3cc(Cl)ccc32)N1CC1CC1 [Ib-206]	4 nM
Cc1c(C(=O)O)ccc2c1nc1n2CC[C@H]2[C@@H]1[C@H](c1ccnc(Cl)c1F)[C@]1(C(=O)Nc3cc(Cl)ccc31)N2CC1CC1 [Ib-207]	8 nM
O=C(NC(CO)CO)c1ccc2c(c1)nc1n2CC[C@H]2[C@@H]1[C@H](c1cccc(Cl)c1F)[C@]1(C(=O)Nc3cc(Cl)ccc31)N2CC1CC1 [Ib-214]	3 nM
COCC(COC)NC(=O)c1ccc2c(c1)nc1n2CC[C@H]2[C@@H]1[C@H](c1cccc(Cl)c1F)[C@]1(C(=O)Nc3cc(Cl)ccc31)N2CC1CC1 [Ib-217]	4 nM
O=C(NC(CO)(CO)CO)c1ccc2c(c1)nc1n2CC[C@H]2[C@@H]1[C@H](c1cccc(Cl)c1F)[C@]1(C(=O)Nc3cc(Cl)ccc31)N2CC1CC1 [Ib-218]	6 nM
COCCOCCNC(=O)c1ccc2c(c1)nc1n2CC[C@H]2[C@@H]1[C@H](c1cccc(Cl)c1F)[C@]1(C(=O)Nc3cc(Cl)ccc31)N2CC1CC1 [Ib-219]	5 nM
O=C(c1ccc2c(c1)nc1n2CC[C@H]2[C@@H]1[C@H](c1cccc(Cl)c1F)[C@]1(C(=O)Nc3cc(Cl)ccc31)N2CC1CC1)N1CCOCC1 [Ib-220]	10 nM
CN1CCN(C(=O)c2ccc3c(c2)nc2n3CC[C@H]3[C@@H]2[C@H](c2cccc(Cl)c2F)[C@]2(C(=O)Nc4cc(Cl)ccc42)N3CC2CC2)CC1 [Ib-221]	10 nM
CC1(CNC(=O)c2ccc3c(c2)nc2n3CC[C@H]3[C@@H]2[C@H](c2cccc(Cl)c2F)[C@]2(C(=O)Nc4cc(Cl)ccc42)N3CC2CC2)COC1 [Ib-226]	5 nM
O=C(NC1COCC1O)c1ccc2c(c1)nc1n2CC[C@H]2[C@@H]1[C@H](c1cccc(Cl)c1F)[C@]1(C(=O)Nc3cc(Cl)ccc31)N2CC1CC1 (stereo partly shown) [Ib-229]	4 nM
CNC(=O)c1cc2nc3n(c2cc1OC)CC[C@H]1[C@@H]3[C@H](c2cccc(Cl)c2F)[C@]2(C(=O)Nc3cc(Cl)ccc32)N1CC1CC1 [Ib-235]	3 nM
COc1cc2c(cc1C(=O)N(C)C)nc1n2CC[C@H]2[C@@H]1[C@H](c1cccc(Cl)c1F)[C@]1(C(=O)Nc3cc(Cl)ccc31)N2CC1CC1 [Ib-236]	5 nM
CNC(=O)c1cc2nc3n(c2cc1C)CC[C@H]1[C@@H]3[C@H](c2cccc(Cl)c2F)[C@]2(C(=O)Nc3cc(Cl)ccc32)N1CC1CC1 [Ib-237]	10 nM

Continued, values first:

IC50	Compound
3 nM	CNC(=O)c1ccc2c(c1)nc1n2CC[C@H]2[C@@H]1[C@H](c1cccc(Cl)c1F)[C@]1(C(=O)Nc3cc(Cl)ccc31)N2CC1CC1 [Ib-209]
4 nM	NC(=O)c1ccc2c(c1)nc1n2CC[C@H]2[C@@H]1[C@H](c1cccc(Cl)c1F)[C@]1(C(=O)Nc3cc(Cl)ccc31)N2CC1CC1 [Ib-210]
11 nM	CN(C)C(=O)c1ccc2c(c1)nc1n2CC[C@H]2[C@@H]1[C@H](c1cccc(Cl)c1F)[C@]1(C(=O)Nc3cc(Cl)ccc31)N2CC1CC1 [Ib-211]
5 nM	O=C(NC1CC1)c1ccc2c(c1)nc1n2CC[C@H]2[C@@H]1[C@H](c1cccc(Cl)c1F)[C@]1(C(=O)Nc3cc(Cl)ccc31)N2CC1CC1 [Ib-212]
7 nM	CC(C)(O)CNC(=O)c1ccc2c(c1)nc1n2CC[C@H]2[C@@H]1[C@H](c1cccc(Cl)c1F)[C@]1(C(=O)Nc3cc(Cl)ccc31)N2CC1CC1 [Ib-213]
4 nM	O=C(NCCO)c1ccc2c(c1)nc1n2CC[C@H]2[C@@H]1[C@H](c1cccc(Cl)c1F)[C@]1(C(=O)Nc3cc(Cl)ccc31)N2CC1CC1 [Ib-215]
7 nM	COCCNC(=O)c1ccc2c(c1)nc1n2CC[C@H]2[C@@H]1[C@H](c1cccc(Cl)c1F)[C@]1(C(=O)Nc3cc(Cl)ccc31)N2CC1CC1 [Ib-216]
9 nM	NCCNC(=O)c1ccc2c(c1)nc1n2CC[C@H]2[C@@H]1[C@H](c1cccc(Cl)c1F)[C@]1(C(=O)Nc3cc(Cl)ccc31)N2CC1CC1 [Ib-222]
5 nM	CN(C)CCNC(=O)c1ccc2c(c1)nc1n2CC[C@H]2[C@@H]1[C@H](c1cccc(Cl)c1F)[C@]1(C(=O)Nc3cc(Cl)ccc31)N2CC1CC1 [Ib-223]
5 nM	CC1(NC(=O)c2ccc3c(c2)nc2n3CC[C@H]3[C@@H]2[C@H](c2cccc(Cl)c2F)[C@]2(C(=O)Nc4cc(Cl)ccc42)N3CC2CC2)COC1 [Ib-225]
4 nM	O=C(c1ccc2c(c1)nc1n2CC[C@H]2[C@@H]1[C@H](c1cccc(Cl)c1F)[C@]1(C(=O)Nc3cc(Cl)ccc31)N2CC1CC1)N1CC(O)C1 [Ib-227]
5 nM	CN1CC(NC(=O)c2ccc3c(c2)nc2n3CC[C@H]3[C@@H]2[C@H](c2cccc(Cl)c2F)[C@]2(C(=O)Nc4cc(Cl)ccc42)N3CC2CC2)C1 [Ib-228]
10 nM	CN(O)C(=O)c1ccc2c(c1)nc1n2CC[C@H]2[C@@H]1[C@H](c1cccc(Cl)c1F)[C@]1(C(=O)Nc3cc(Cl)ccc31)N2CC1CC1 [Ib-230]
4 nM	O=C(NO)c1ccc2c(c1)nc1n2CC[C@H]2[C@@H]1[C@H](c1cccc(Cl)c1F)[C@]1(C(=O)Nc3cc(Cl)ccc31)N2CC1CC1 [Ib-231]
3 nM	CC(C)CN1[C@H]2CCn3c(nc4cc(C(N)=O)ccc43)[C@H]2[C@H](c2cccc(Cl)c2F)[C@]12C(=O)Nc1cc(Cl)ccc12 [Ib-232]
4 nM	CNC(=O)c1ccc2c(c1)nc1n2CC[C@H]2[C@@H]1[C@H](c1cccc(Cl)c1F)[C@]1(C(=O)Nc3cc(Cl)ccc31)N2CC(C)C [Ib-233]
6 nM	NC(=O)c1ccc2nc3n(c2c1)CC[C@H]1[C@@H]3[C@H](c2cccc(Cl)c2F)[C@]2(C(=O)Nc3cc(Cl)ccc32)N1CC1CC1 [Ib-238]
3 nM	NC(=O)c1ccc2c(c1)nc1n2C[C@H]2[C@@H]1[C@H](c1cccc(Cl)c1F)[C@]1(C(=O)Nc3cc(Cl)ccc31)N2CC1CC1 [Ib-239]
3 nM	CNC(=O)c1ccc2c(c1)nc1n2C[C@H]2[C@@H]1[C@H](c1cccc(Cl)c1F)[C@]1(C(=O)Nc3cc(Cl)ccc31)N2CC1CC1 [Ib-240]
